Measurements reported in US6537977B1, “Anti-inflammatory agent” (Seikagaku Corporation, priority 1995, dated 2003).
Blank lines part the entries; values can stand above or below the compound they belong to.

Tests used:
Cri; CD-1 mice = experiment: Toxicity test by single intravenous administration; assay type: in vivo
Description: Toxicity test by single intravenous administration of dermatan sulfate(1) Experimental method
As experimental animals, five weeks old female and male Cri; CD-1 mice (Japanese Charles-river (n=5 each) were used. The DS solution obtained by the same method as in reference example 1 was made isotonic using sterile distilled water and sterile physiological saline solution and single 2000 mg/kg of DS was administered intravenously into tail vein in mice and clinical observations were carried out for 14 days.

[1] = system: MRL (1 pr/1 pr) mice with nephritis; experiment: Mice SLE model-1: effects on renal function (serum BUN, creatinine); assay type: in vivo; conditions: once per day, five times per week, 4 weeks
Description: As agents, DS or low molecular weight heparin ([…], Fragmin) prepared according to a method in reference example 1 was dissolved in sterile physiological saline solution on use. Blood samples were taken from 17 weeks old mice, only MRL mice with nephritis whose level of blood urea nitrogen (BUN) were high at the nearly same level were selected and divided into 4 groups, each group consisting of 5 mice. Sterile physiological saline solution was administered in one group as non-treated control group, 5 mg/kg of DS, 25 mg/kg of DS and 1 mg/kg of […] were administered into tail vein in another 3 groups, once per day and five times per week. […] Serum and plasma taken were used for determination of BUN, creatinine and fibrinogen and kidneys were used for histopathological examination. […] In FIG. 3b, * means that there is a significant difference with p<0.05 from non-treated control group by Bonferroni examination. Both of BUN and creatinine level of non-treated control group were higher than those of normal control group(C57BL/6), which made it clear that renal function thereof was impaired.

[2] = system: Lewis rats with experimental allergic encephalomyelitis; experiment: Rat experimental allergic encephalomyelitis (EAE), multiple sclerosis model; assay type: in vivo; conditions: 5 mg DS i.p. once a day since third day after immunization
[3] = system: MRL (1 pr/1 pr) mice with nephritis; experiment: Mice SLE model-1: fibrinogen level in blood; assay type: in vivo
[4] = parameters: species or system SD male rats; conditions: rat, in vivo
Description: X represents overlapping ◯ and ●.
Dermatan sulfate derived from crest and dermatan sulfate derived from bovine intestine (see reference example 2 in WO95/09188) were administered into tail vein of SD male rats and changes with the passage of time in the residual level of dermatan sulfate in blood were determined and the residual rate thereof to the initial level of dermatan sulfate on administration was calculated (see example 1 in the above International publication). […] Thus, since dermatan sulfate derived from crest or dermatan sulfate with the equivalent physical properties has a long life span in blood and sustained anti-inflammatory effects, a large dosage thereof is not required for the treatment and dermatan sulfate derived from crest or equivalent thereof is the most preferable.

[5] = system: MRL (1 pr/1 pr) mice with nephritis; experiment: Mice SLE model-1: histopathological observations of kidney (MC and DP glomeruli); assay type: in vivo; conditions: 4 weeks
Description: As SLE model, 17 weeks old male MRL (1 pr/1 pr) mice were used, while C57BL/6 mice with the same age and sex were used as normal control. As agents, DS or low molecular weight heparin (LMWHep, Fragmin) prepared according to a method in reference example 1 was dissolved in sterile physiological saline solution on use.
Blood samples were taken from 17 weeks old mice, only MRL mice with nephritis whose level of blood urea nitrogen (BUN) were high at the nearly same level were selected and divided into 4 groups, each group consisting of 5 mice. Sterile physiological saline solution was administered in one group as non-treated control group, 5 mg/kg of DS, 25 mg/kg of DS and 1 mg/kg of LMWHep were administered into tail vein in another 3 groups, once per day and five times per week. […] Serum and plasma taken were used for determination of BUN, creatinine and fibrinogen and kidneys were used for histopathological examination.

[6] = system: MRL (1 pr/1 pr) mice with nephritis; experiment: Mice SLE model-1: histopathological change of renal artery (angiitis); assay type: in vivo; conditions: for angiitis intermediate degree, number of individual / angiitis serious degree, number of individual / angiitis slight degree, number of individual: 5 mice
MRL (1 pr/1 pr) mice [7] = conditions: single administration of 10 mg/kg endoxan
Description: (§1) Ten weeks old male MRL (1 pr/1 pr) mice was used as experimental animals and DS prepared according to reference example 1 was used as an agent by dissolving it in sterile physiological saline solution on use.
(§2) Sterile physiological saline solution was administered in negative control group (non-treated group).
DS was daily, 5 times per week (neither on Saturday or on Sunday), administered into tail vein in mice using 1 ml disposable syringe at the dose level of 25 mg/kg/day. […] During administration, animals were daily observed carefully. After 8 weeks, blood samples were taken under anesthesia with Nembutal and animals were killed by exsanguination. Then, serum creatinine level, spleen weight and the weight of mesenteric lymph node were measured.
Treatment for enlarged spleen in MRL mice was tried. […] The dose of DS was 25 mg/kg in any case.

MRL (1 pr/1 pr) mice [8] = conditions: single administration of 20 mg/kg endoxan i.p. once a week, 8 weeks
Description: as §1, §2
At the age of 10 weeks old, body weight of animals were weighed and blood samples were taken for determination of serum BUN (urea nitrogen) and serum creatinine. […] DS was daily, 5 times per week (neither on Saturday or on Sunday), administered into tail vein in mice using 1 ml disposable syringe at the dose level of 25 mg/kg/day. […] During administration, animals were daily observed carefully. After 8 weeks, blood samples were taken under anesthesia with Nembutal and animals were killed by exsanguination. Then, serum creatinine level, spleen weight and the weight of mesenteric lymph node were measured.

Compound: sodium salt of dermatan sulfate [DS]
death after 14 days observation (Cri; CD-1 mice; single 2000 mg/kg i.v. tail vein, 5 female and 5 male mice): no death
lethal dose (Cri; CD-1 mice; single i.v. tail vein, mice, 14 days observation): more than 2000 mg/kg
BUN level ([1]; 5 mg/kg tail vein): slightly improved
creatinine level ([1]; 5 mg/kg tail vein): slightly improved
BUN level ([1]; 25 mg/kg tail vein): slightly improved
creatinine level ([1]; 25 mg/kg tail vein, p<0.05 vs non-treated control): significantly improve
mean onset day [2]: 9.5±0.5
accumulated clinical scores ([2]; p<0.05 vs control group): 12.4±1.7
increase of fibrinogen level in blood ([3]; 5 mg/kg group): suppressed in a dose-dependent manner
increase of fibrinogen level in blood ([3]; 25 mg/kg group): suppressed in a dose-dependent manner
residual rate of dermatan sulfate in blood [4]: about 10%
residual rate of dermatan sulfate in blood, compared with dermatan sulfate derived from bovine intestine [4]: twice as much
ratio of DP glomeruli (number of DP glomeruli/total number of glomeruli) ([5]; 5 mg/kg): clearly decreased in a dose-dependent manner
ratio of MC glomeruli (number of MC glomeruli/total number of glomeruli) ([5]; 5 mg/kg): slightly increased
ratio of DP glomeruli (number of DP glomeruli/total number of glomeruli) ([5]; 25 mg/kg): clearly decreased in a dose-dependent manner
ratio of MC glomeruli (number of MC glomeruli/total number of glomeruli) ([5]; 25 mg/kg): significantly increased
histopathological evaluation of angiitis of renal artery, versus non-treated group ([6]; 5 mg/kg group): not a big difference
angiitis intermediate degree, number of individual ([6]; 5 mg/kg group): 2
angiitis serious degree, number of individual ([6]; 5 mg/kg group): 3
angiitis slight degree, number of individual ([6]; 5 mg/kg group): 0
histopathological evaluation of angiitis of renal artery ([6]; 25 mg/kg group): individual with serious degree decreased and individual with intermediate and slight degree increased
angiitis intermediate degree, number of individual ([6]; 25 mg/kg group): 3
angiitis serious degree, number of individual ([6]; 25 mg/kg group): 1
angiitis slight degree, number of individual ([6]; 25 mg/kg group): 1

Compound: low molecular weight heparin [LMWHep, reference compound]
BUN level ([1]; 1 mg/kg tail vein): slightly improved
creatinine level ([1]; 1 mg/kg tail vein): slightly improved
suppression of increase of fibrinogen level in blood ([3]; 1 mg/kg group): did not scarcely recognized
ratio of DP glomeruli (number of DP glomeruli/total number of glomeruli) ([5]; 1 mg/kg): such an effect was not recognized
ratio of MC glomeruli (number of MC glomeruli/total number of glomeruli) ([5]; 1 mg/kg): slightly increased
histopathological evaluation of angiitis of renal artery, versus non-treated group ([6]; 1 mg/kg group): not a big difference
angiitis intermediate degree, number of individual ([6]; 1 mg/kg group): 1
angiitis serious degree, number of individual ([6]; 1 mg/kg group): 4
angiitis slight degree, number of individual ([6]; 1 mg/kg group): 0

residual rate of dermatan sulfate in blood [4]: scarcely detected
Compound: dermatan sulfate [reference compound]

Compound: O=P1(N(CCCl)CCCl)NCCCO1 (stereo not drawn) [endoxan, Cyclophosphamide]
spleen weight, compared with negative control group (MRL (1 pr/1 pr) mice [7]): did not give any effect
serum creatinine level, compared with negative control group (MRL (1 pr/1 pr) mice [8]): did not exhibit any effect
